# Data taken from patent publication US6831079B1, “Vasopressin agonist formulation and process” (American Cyanamid Company, priority 1999, dated 2004).
# Key:
# Vasopressin V2 = Vasopressin V2 (Rattus norvegicus, UniProt Q00788); test: Vasopressin V2 agonist effects in normal conscious water-loaded rats; assay type: in vivo; design: from tissue; host or cells: whole living Sprague-Dawley rat; the receptor is the animal's own (renal, by own knowledge); conditions: Sprague-Dawley (CD) rats, 10 mg/kg oral; for Osmolality (% Increase): change in osmolality as percent of control; for Urine Volume (% decrease): vs. control, urine collected four hours
# Chain of Vasopressin V2 (Q00788 whole entry): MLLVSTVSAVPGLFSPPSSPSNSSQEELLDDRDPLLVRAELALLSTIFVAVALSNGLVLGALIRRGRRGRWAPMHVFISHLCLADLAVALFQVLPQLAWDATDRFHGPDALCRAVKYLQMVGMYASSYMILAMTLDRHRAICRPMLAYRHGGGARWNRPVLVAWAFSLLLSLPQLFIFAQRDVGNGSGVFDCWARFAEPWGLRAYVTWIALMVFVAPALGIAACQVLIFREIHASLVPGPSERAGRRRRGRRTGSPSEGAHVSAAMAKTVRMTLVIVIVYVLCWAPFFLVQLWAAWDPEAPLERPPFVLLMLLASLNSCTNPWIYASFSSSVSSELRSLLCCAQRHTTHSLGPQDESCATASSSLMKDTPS
# Excerpt: Vasopressin V2 Agonist Effects of Test Compounds in Normal Conscious Water-loaded Rats
# Male or female normotensive Sprague-Dawley rats (Charles River Laboratories, Inc., Kingston, N.Y.) of 350-500 g body weight were supplied with standard rodent diet (Purina Rodent Lab. Chow 5001) and water ad libitum. On the day of test, rats were placed individually into metabolic cages equipped with devices to separate the feces from the urine and containers for collection of urine. […] The vehicle used was 20% dimethylsulfoxide (DMSO) in 2.5% preboiled corn starch. Thirty minutes after dosing the test compound, rats were gavaged with water at 30 ml/kg into the stomach using a feeding needle. During the test, rats were not provided with water or food. Urine was collected for four hours after dosing of the test compound. At the end of four hours, urine volume was measured. Urinary osmolality was determined using a Fiske One-Ten Osmometer (Fiske Associates, Norwood, Mass., 02062) or an Advanced CRYOMATIC Osmometer, Model 3C.2 (Advanced Instruments, Norwood, Mass.). Determinations of Na^+, K^+ and Cl^− ion were carried out using ion specific electrodes in a Beckman SYNCHRON EL-ISE Electrolyte System analyzer. The urinary osmolality should increase proportionally. In the screening test, two rats were used for each compound. If the difference in the urine volume of the two rats was greater than 50%, a third rat was used.
melting point,Osmolality (% Increase) (Vasopressin V2),Urine Volume (% decrease) (Vasopressin V2),Compound
171 to 172 °C,–,–,"O=C(c1ccc(-n2ccnc2)cc1)N1Cc2cccn2Cc2ccccc21 [Example 63, [4-(Imidazol-1-yl)-phenyl]-(5H,11H-pyrrolo[2,1-c][1,4]benzodiazepin-10-yl)-methanone]"
–,38%,47%,"O=C(c1ccc(-n2cccc2)cc1Cl)N1Cc2cccn2Cc2ccccc21 [Example 15, (2-Chloro-4-pyrrol-1-yl-phenyl)-(5H,11H-pyrrolo[2,1-c][1,4]benzodiazepin-10-yl)-methanone]"
–,125%,31%,"COc1cc(-n2ccc(C)n2)ccc1C(=O)N1Cc2cccn2Cc2ccccc21 [Example 107, [2-Methoxy-4-(3-methyl-pyrazol-1-yl)-phenyl](5H,11H-pyrrolo[2,1-c][1,4]-benzodiazepin-10-yl) Methanone]"
–,663%,88%,"[2-Chloro-4-(3-methyl-4-ethynyl-phenyl) (5H,11H-pyrrolo[2,1-c][1,4]-benzodiazepin-10-yl)-methanone [Example 123]"
–,436%,76%,"Cc1nc(-c2ccc(C(=O)N3Cc4cccn4Cc4ccccc43)c(Cl)c2)n(C)n1 [Example 85, 4-[(2,5-Dimethyl-2H-[1,2,4]triazol-3-yl)-2-chloro-phenyl]-(5H,11H-pyrrolo[2,1-c][1,4]benzodiazepin-10-carbonyl)-methanone]"
–,311%,68%,Cc1ccn(-c2ccc(C(=O)N3Cc4nnnn4Cc4ccccc43)c(Cl)c2)n1 [Example 117]
–,183%,76%,"CCCn1ccc(-c2ccc(C(=O)N3Cc4cccn4Cc4ccccc43)cc2)n1 [Example 27, [4-(1-Propyl-1H-pyrazol-3-yl)-phenyl]-(5H,11H-pyrrolo[2,1-c][1,4]-benzodiazepin-10-yl)-methanone]"
–,298%,72%,"CCC(=O)n1ccc(-c2ccc(C(=O)N3Cc4cccn4Cc4ccccc43)cc2)n1 [Example 31, 1-{3-[4-(5H,11H-Pyrrolo[2,1-c][1,4]benzodiazepine-10-carbonyl)-phenyl]-pyrazol-1-yl}-propan-1-one]"
–,373%,77%,"O=C(c1ccc(-c2ccn(C(=O)C3CC3)n2)cc1)N1Cc2cccn2Cc2ccccc21 [Example 32, [4-(1-Cyclopropanecarbonyl-1H-pyrazol-3-yl)-phenyl]-(5H,11H-pyrrolo[2,1-c][1,4]benzodiazepin-10-yl)-methanone]"
–,330%,69%,"Cc1cn(-c2ccc(C(=O)N3Cc4cccn4Cc4ccccc43)c(Cl)c2)cn1 [Example 12, [2-Chloro-4-(4-methyl-imidazol-1-yl)-phenyl]-(5H,11H-pyrrolo[2,1-c][1,4]benzodiazepin-10-yl)-methanone]"
–,181%,49%,"Cc1cnn(-c2ncc(C(=O)N3Cc4cccn4Cc4ccccc43)c(C(F)(F)F)n2)c1 [Example 21, [2-(4-Methyl-pyrazol-1-yl)-4-trifluoromethyl-pyrimidin-5-yl]-(5H,11H-pyrrolo[2,1-c][1,4]benzodiazepin-10-yl)-methanone]"
–,168%,21%,Cc1ccnn1-c1ccc(C(=O)N2Cc3cccn3Cc3ccccc32)c(Cl)c1 [Example 9B]
–,272%,67%,"Cn1nccc1-c1ccc(C(=O)N2Cc3ccnn3Cc3ccccc32)cc1 [Example 120B, [4-(2-Methyl-1H-pyrazol-3-yl)phenyl](4H,1OH-pyrazolo[5,1c][1,4]-benzodiazepin-5-yl)methanone]"
–,225%,57%,"O=C(c1ccc(-n2cccn2)cc1C(F)(F)F)N1Cc2cccn2Cc2ccccc21 [Example 4, (4-Pyrazol-1-yl-2-trifluoromethyl-phenyl)-(5H,11H-pyrrolo[2,1-c][1,4]benzodiazepin-10-yl)-methanone]"
–,137%,13%,"O=C(c1ccc(-n2cncn2)cc1C(F)(F)F)N1Cc2cccn2Cc2ccccc21 [Example 7, (5H,11H-Pyrrolo[2,1-c][1,4]benzodiazepin-10-yl)-(4-[1,2,4]triazol-1-yl-2-trifluoromethylphenyl)-methanone]"
–,253%,69%,"O=C(c1ccc(-c2ccn(C(=O)Cc3ccc(Cl)cc3Cl)n2)cc1)N1Cc2cccn2Cc2ccccc21 [Example 39, 2-(2,4-Dichloro-phenyl)-1-{3-[4-(5H,11H-pyrrolo[2,1-c][1,4]benzodiazepine-10-carbonyl)-phenyl]-pyrazol-1-yl}-ethanone]"
–,305%,66%,"COCn1ccc(-c2ccc(C(=O)N3Cc4cccn4Cc4ccccc43)cc2)n1 [Example 29, [4-(1-methoxymethyl-1H-pyrazol-3-yl)-phenyl]-(5H,11H-pyrrolo[2,1-c][1,4]-benzodiazepin-10-yl)-methanone]"
–,229%,50%,"O=C(c1ccc(-n2ccc(C(F)(F)F)n2)cc1Cl)N1Cc2cccn2Cc2ccccc21 [Example 13, [2-Chloro-4-(3-trifluoromethyl-pyrazol-1-yl)-phenyl]-(5H,11H-pyrrolo[2,1-c][1,4]benzodiazepin-10-yl)-methanone]"
–,90%,13%,"N#Cc1ccc(C(=O)N2Cc3cccn3Cc3ccccc32)c(Cl)c1 [Example 77, 3-Chloro-4-(5H,11H-pyrrolo[2,1-c][1,4]benzodiazepine-10-carbonyl)-benzonitrile]"
–,324%,49%,"O=C(c1ccc(-n2cccn2)cc1)N1Cc2cccn2Cc2ccccc21 [Example 58, [4-(Pyrazol-1-yl)-phenyl]-(5H,11H-pyrrolo[2,1-c][1,4]benzodiazepin-10-yl)-methanone]"
–,400%,88%,"O=C(c1ccc(-n2cccn2)cc1Cl)N1Cc2cccn2Cc2ccccc21 [Example 16, (2-Chloro-4-pyrazol-1-yl-phenyl)(5H,11H-Pyrrolo[2,1-c][1,4]benzodiazepin-10-yl)-methanone]"
–,279%,54%,"CCn1ccc(-c2ccc(C(=O)N3Cc4cccn4Cc4ccccc43)cc2)n1 [Example 26, [4-(1-Ethyl-1H-pyrazol-3-yl)-phenyl]-(5H,11H-pyrrolo[2,1-c][1,4]-benzodiazepin-10-yl)-methanone]"
–,95%,21%,Cc1ccn(-c2ccc(C(=O)N3Cc4cccn4Cc4ccccc43)c(O)c2)n1 [Example 109]
